“Also recorded” adds a separate entry of the source. Blank lines part the entries; values can stand above or below the compound they belong to.
Legend:
5-LOX = test system: 5-LOX; design: method as in PMID 8021931, PMID 9396390, PMID 12660020, PMID 19719242; details: literature values, Figures 1 and 2; cited from earlier work
COX-1 = details: cited from earlier work; for IC50: literature values, Figures 1 and 2
[1] = biological target: T1, COX-2 (human recombinant) (Homo sapiens, UniProt P35354); assay: COX colorimetric inhibitor screening assay, COX-2; details: for SI (COX-2 selectivity index = IC50 of COX-1/IC50 of COX-2): in vitro
T1 sequence (P35354 18-604): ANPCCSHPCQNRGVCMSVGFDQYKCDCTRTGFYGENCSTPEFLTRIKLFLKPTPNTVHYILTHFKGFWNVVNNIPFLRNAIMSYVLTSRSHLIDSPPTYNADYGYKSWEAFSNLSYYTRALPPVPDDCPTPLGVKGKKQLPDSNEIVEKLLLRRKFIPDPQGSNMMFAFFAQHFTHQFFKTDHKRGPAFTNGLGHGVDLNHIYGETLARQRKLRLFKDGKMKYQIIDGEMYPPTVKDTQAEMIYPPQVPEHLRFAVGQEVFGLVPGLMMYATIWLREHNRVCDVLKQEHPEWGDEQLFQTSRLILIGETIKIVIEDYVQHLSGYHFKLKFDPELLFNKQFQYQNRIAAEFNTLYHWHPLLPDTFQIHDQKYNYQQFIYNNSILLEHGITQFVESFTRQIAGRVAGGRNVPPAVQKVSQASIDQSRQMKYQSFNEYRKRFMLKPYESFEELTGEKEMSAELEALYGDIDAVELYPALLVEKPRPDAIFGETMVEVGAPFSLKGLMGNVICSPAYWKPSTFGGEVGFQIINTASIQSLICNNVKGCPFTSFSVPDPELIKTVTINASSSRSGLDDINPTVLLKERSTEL

COX-1 (ovine) = biological target: T2, COX-1 (ovine) (Ovis aries, UniProt P05979); assay: COX colorimetric inhibitor screening assay, COX-1
T2 sequence (P05979 25-600): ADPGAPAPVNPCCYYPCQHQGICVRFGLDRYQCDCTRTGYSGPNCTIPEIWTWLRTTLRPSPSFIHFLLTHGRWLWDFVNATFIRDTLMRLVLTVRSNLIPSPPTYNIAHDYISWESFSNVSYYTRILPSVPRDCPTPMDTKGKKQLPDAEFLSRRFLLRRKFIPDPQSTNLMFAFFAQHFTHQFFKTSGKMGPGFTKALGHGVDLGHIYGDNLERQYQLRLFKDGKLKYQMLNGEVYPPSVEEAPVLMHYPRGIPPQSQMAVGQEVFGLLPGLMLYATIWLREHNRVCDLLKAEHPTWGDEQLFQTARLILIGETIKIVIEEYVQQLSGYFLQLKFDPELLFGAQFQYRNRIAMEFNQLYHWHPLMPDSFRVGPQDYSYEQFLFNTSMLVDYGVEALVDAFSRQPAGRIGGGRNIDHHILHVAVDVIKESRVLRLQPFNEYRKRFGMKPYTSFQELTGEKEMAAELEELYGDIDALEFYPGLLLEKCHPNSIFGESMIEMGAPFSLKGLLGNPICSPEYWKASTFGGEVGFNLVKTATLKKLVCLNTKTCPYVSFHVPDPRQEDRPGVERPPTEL

rat stomach mucosa = assay: Acute ulcerogenicity study; format: in vivo; details: oral, 0.48 mmol/kg; for Ulcerogenicity UI (ulcer index): three days, n = 6
Description: GIT toxicity is the main serious side effect of the NSAIDs. In this work, the ulcerogenicity of the novel compounds 12–19 was evaluated according to the previous reported methodology. The tested compounds 12–19 and ibuprofen were given orally in a dose of 0.48 mmol/kg.
(§1) Adult albino rats of both sex weighing 100–140 g were used in evaluation of the anti-inflammatory, analgesic, ulcerogenic activity in addition to the histopathological study of the new pyrrolizines 12–19. Animal ethical use clearance was obtained from the Ethical Committee at the College of Pharmacy, Umm Al-Qura University. Normalization of the animals with laboratory conditions were achieved by keeping them in laboratory one week before starting the experiments. Standard rat pellet diet was used for feeding animals and water ad libitum.
GIT toxicity was evaluated according to the previous report. Adult albino rats of both sexes were divided into groups of six animals each. The test compounds were dissolved first in 0.5 mL DMSO, then CMC (1%) was added dropwise with trituration. Rats were fasted 20 h before drug administration. The eight tested compounds and ibuprofen were given orally in a dose of 0.24 and 0.48 mmol/kg/day suspended in 1% CMC, while the control group received vehicle (1% CMC containing few drops of DMSO). Rats were then fasted for 2 h, allowed to feed for 2 h then fasted again for another 20 h. Other doses were given in the second and third days. In the fourth day, Pentobarbital (60 mg/kg IP) was used to induce deep anesthesia then rats were sacrificed. The stomachs were removed, opened along with the greater curvature and rinsed with 0.9% saline. The number of mucosal damages (red spots) were counted using magnifying lens and their severity (ulcerogenic severity) was graded in a scale from 0 to 3 as follows: (0) normal (no injury), (0.5) red coloration, (1) spot ulcer, (1.5) hemorrhagic streaks, (2) ulcer > 3 mm, (3) ulcer > 5 mm. The ulcer index was calculated using the following equation ulcer index (UI) = UN + US + UP/10, where UN is the average number pf ulcers per animal, US is the average of severity score, UP is the percent of animal with ulcer.

[2] = test system: carrageenan-induced rat paw edema; assay: Carrageenan-induced rat paw edema model (anti-inflammatory activity); format: in vivo; design: key to Potency (anti-inflammatory activity of tested compound/ibuprofen): ratio of % inhibition of edema (compound / ibuprofen); ibuprofen = 1.00; details: for % Inhibition in Edema Thickness 1 h: 1 h after induction of inflammation; for % Inhibition in Edema Thickness 1 h / % Inhibition in Edema Thickness 2 h / % Inhibition in Edema Thickness 3 h: IP, dose molecularly equivalent to ibuprofen, n = 6; for % Inhibition in Edema Thickness 2 h: 2 h after induction of inflammation; for % Inhibition in Edema Thickness 3 h: 3 h after induction of inflammation; for Potency (anti-inflammatory activity of tested compound/ibuprofen): after 3 h of induction of inflammation, relative to ibuprofen; for anti-inflammatory activity (in words): compared with ibuprofen and parent compound 12
From the text: The carrageenan-induced rat paw edema model was utilized to investigate the anti-inflammatory activity of compounds 12–19 relative to ibuprofen as a reference drug.
as §1
The anti-inflammatory activity of the novel compounds 12–19 was evaluated in comparison with ibuprofen as a standard, using a rat paw edema model as described by Winter et al.. Adult albino rats of both sexes (100–140 gm) were used. Rats were uniformly hydrated by giving 3 mL water for each rat through gastric inoculation to reduce variability to edema response. Animals were then divided into groups of six animal each. The control group was given saline solution containing few drops of sodium carboxymethyl cellulose (CMC) 1% and DMSO. Ibuprofen (50 and 100 mg/kg) was given as standard drug. The new compounds 12–19 in a dose molecularly equivalent to ibuprofen were dissolved in 0.5 mL DMSO and CMC 1% was added dropwise with continuous triturating to complete the specified volume. The tested compounds were administered intraperitoneally (IP). The induction of inflammation was achieved by subcutaneous (SC) injection of carrageenan-sodium gel, into the sub-plantar region of the right hind paw. The dorsoventral diameter (thickness) of the right and left hind paw of each rat was measured using digital calipers with accuracy of 0.01 mm (Cole-Parmer, Vernon Hills, IL, USA). The thickness of edema was measured 1, 2 and 3 h after induction of inflammation. The left hind paw diameter served as a control for the degree of inflammation in the right hind paw. The changes in the edema thickness were expressed as mean ± SEM, Figure 4. The anti-inflammatory activity was calculated as % inhibition of inflammation = (1 − Lt/Lc) × 100. Where Lt is the mean increase in paw thickness in rats treated with the tested compounds and Lc is the mean increase in paw thickness in control group. Data were collected, and statistically analyzed by One way ANOVA followed by student-Newman-Keuls multiple comparison test, Table 2.

[3] = test system: stomach mucosa, submucosa and mucosal glands; assay: Histopathological study of rat stomach; format: in vivo; details: rats of the ulcerogenicity test, haematoxylin and eosin stain
From the text: The stomachs of the rats used in ulcerogenicity test were subjected to a histopathological study to visualize the deep effects of ibuprofen and tested compounds on the stomach mucosa, submucosa and mucosal glands. The specimens were stained with haematoxylin and eosin stain [33].
The study investigated the deep effect of the tested compounds on the mucosa, submucosa and mucosal gland. The stomachs which were opened longitudinally along the greater curvature were used and the specimens were taken from the stomachs of all cases. These specimens were fixed in 10% formalin solution for 72 h. The samples were processed and embedded in paraffin wax. Microtomy was done and 5 microns tissue sections were obtained and mounted on clean glass slides.

thermal pain (hot plate) = assay: Hot-plate test (analgesic activity); format: in vivo, rat; details: IP, 0.24 and 0.48 mmol/kg, 2 h after injection, compared with ibuprofen
Description: A hot-plate was used to induce thermal pain and the cutoff time was fixed to 15 s [30]. […] The analgesic activity of the novel pyrrolizines were carried out using the thermal model (hot-plate test) according to a previous report [30]. An electronically controlled hot-plate (Harvard Apparatus Ltd., Kent, UK) was used and the cut-off time was 15 s and the temperature was adjusted to 52 ± 0.1 °C. Animals were then divided into groups of six animal each. Rats were assigned numbers of 1–6 in each group. The reference drug was given intraperitoneally at a dose of 50 mg/kg (0.24 mmol/kg) and 100 mg/kg (0.48 mmol/kg). […] The response latencies (time elapsed until licking paw or jumping) were measured and expressed as mean ± SEM. The percent changes (analgesic effects) of the tested compounds were calculated as percent change in latencies divided by baseline time (100 × (T1 − T0)/T0) and results were expressed as % change ± SEM, Figure 6.

COX-2 = test system: COX-2; design: method as in PMID 10027870, PMID 8021931, PMID 12660020; details: literature values, Figures 1 and 2; cited from earlier work
rat paw edema = test system: rat paw edema; design: method as in PMID 19913956; details: in comparison with ketorolac; cited from earlier work
mPGES-1 = test system: mPGES-1; design: method as in PMID 19719242; details: cell free; cited from earlier work

Compound: CC1(C)Cc2c(-c3ccccc3)c(-c3ccc(Cl)s3)c(CC(=O)O)n2C1 [Compound 3]
IC50 (5-LOX): 250 nM
IC50 (COX-1): 210 nM

IC50 [1]: 850 nM
SI (COX-2 selectivity index = IC50 of COX-1/IC50 of COX-2) [1]: 6.03
IC50 (COX-1 (ovine)): 5100 nM
melting point: 318 to 321 °C
Compound: N#Cc1c(NC(=O)C(=O)Nc2c(C#N)c3n(c2C(=O)Nc2ccc(Br)cc2)CCC3)c(C(=O)Nc2ccc(Br)cc2)n2c1CCC2 [Compound 18, N^1,N^2-Bis(5-((4-Bromophenyl)carbamoyl)-7-cycno-2,3-dihydro-1H-pyrrolizin-6-yl)oxalamide]
Ulcerogenicity UI (ulcer index) (rat stomach mucosa): 4.41
Ulcerogenicity % Protection (% inhibition of ulcer relative to ibuprofen) (rat stomach mucosa): 68.18%
% Inhibition in Edema Thickness 1 h [2]: 6.91%
% Inhibition in Edema Thickness 2 h [2]: 17.72%
% Inhibition in Edema Thickness 3 h [2]: 22.42%
Potency (anti-inflammatory activity of tested compound/ibuprofen) [2]: 0.55
anti-inflammatory activity (in words) [2]: lower activity than both ibuprofen and the parent compound 12
histopathological findings in stomach transverse sections [3]: little histopathological effects such as congested blood vessels and variable degrees of leukocytes infiltration
analgesic activity (in words) (thermal pain (hot plate)): lower than that of ibuprofen

Compound: CC1(C)Cc2c(-c3ccccc3)c(-c3ccc(Cl)cc3)c(CC(=O)O)n2C1 [Licofelone, licofelone]
IC50 (COX-2): > 30000 nM
IC50 (5-LOX): 180 nM
IC50 (COX-1): 210 nM

Compound: Cc1ccc(-c2c(-c3ccc(S(C)(=O)=O)cc3)cn3c2CCC3)cc1 [Compound 4]
IC50 (COX-2): 5 nM
IC50 (5-LOX): 10000 nM
IC50 (COX-1): 700 nM

Compound: O=C(c1ccccc1)c1ccc2n1CCC2C(=O)O (stereo not drawn) [Ketorolac, ketorolac]
IC50 (COX-2): 3600 nM
selectivity ratio for COX-1 (COX-1; COX-1 over COX-2): 2.9
IC50 (COX-1): 1230 nM

Compound: N#Cc1c(N)c(C(=O)Nc2ccc(C(=O)O)cc2)n2c1CCC2 [Compound 7]
reduction in rat paw edema (rat paw edema): approximately 50%

IC50 [1]: 1090 nM
SI (COX-2 selectivity index = IC50 of COX-1/IC50 of COX-2) [1]: 3.21
IC50 (COX-1 (ovine)): 3500 nM
Compound: CN1CCN(CC(=O)Nc2c(C#N)c3n(c2C(=O)Nc2ccc(Br)cc2)CCC3)CC1 [Compound 14, N-(4-Bromophenyl)-7-cyano-6-(2-(4-methylpiperazin-1-yl)acetamido)-2,3-dihydro-1H-pyrrolizine-5-carbox-amide]
Ulcerogenicity UI (ulcer index) (rat stomach mucosa): 4.66
Ulcerogenicity % Protection (% inhibition of ulcer relative to ibuprofen) (rat stomach mucosa): 66.38%
% Inhibition in Edema Thickness 1 h [2]: 8.30%
% Inhibition in Edema Thickness 2 h [2]: 9.84%
% Inhibition in Edema Thickness 3 h [2]: 16.37%
Potency (anti-inflammatory activity of tested compound/ibuprofen) [2]: 0.40
anti-inflammatory activity (in words) [2]: the least active one
histopathological findings in stomach transverse sections [3]: variable degrees of necrosis with some leukocytes infiltration
analgesic activity (in words) (thermal pain (hot plate)): lower than that of ibuprofen; also recorded: the least active

Compound: Cc1ccc(S(=O)(=O)NC(=O)Cc2c(-c3ccc(Cl)cc3)c(-c3ccccc3)c3n2CC(C)(C)C3)cc1 [Compound 6]
IC50 (mPGES-1): 4800 nM
IC50 (5-LOX): 260 nM

Compound: COC1c2c(-c3ccccc3)c(-c3ccc(Cl)cc3)c(C)n2CC1(C)C (stereo not drawn) [Compound 5]
IC50 (COX-2): 7500 nM
IC50 (5-LOX): 60 nM
IC50 (COX-1): 500 nM

melting point: 217 to 219 °C
Compound: CC(C)Cc1ccc(C(C)C(=O)Nc2c(C#N)c3n(c2C(=O)Nc2ccc(Br)cc2)CCC3)cc1 (racemic) [Compound 19, (R,S)-N-(4-Bromophenyl)-7-cycno-6-(2-(4-isobutylphenyl)propanamido)-2,3-dihydro-1H-pyrrolizine-5-carboxamide]
Ulcerogenicity % Protection (% inhibition of ulcer relative to ibuprofen) (rat stomach mucosa): 100%
% Inhibition in Edema Thickness 1 h [2]: 13.82%
% Inhibition in Edema Thickness 2 h [2]: 22.44%
% Inhibition in Edema Thickness 3 h [2]: 38.79%
Potency (anti-inflammatory activity of tested compound/ibuprofen) [2]: 0.95
anti-inflammatory activity (in words) [2]: weak activity after the first hour
histopathological findings in stomach transverse sections [3]: normal mucosal glands with no histopathological effects
analgesic activity (in words) (thermal pain (hot plate)): lower than that of ibuprofen

Reference: article PMC6273963, “Design, Synthesis, and Biological Evaluation of Some Novel Pyrrolizine Derivatives as COX Inhibitors with Anti-Inflammatory/Analgesic Activities and Low Ulcerogenic Liability” (Molecules, 2016)
